Measured values from patent publication US6713449B1, “E2F activity inhibitory compounds” (Kyowa Hakko Kogyo Co., Ltd., priority 1996, dated 2004).
Where a SMILES comes first, the peptide text is derived from it. The star is where a group is joined. Lauroyl = CCCCCCCCCCCC(=O)*

What was measured:
[1] = biological target: T1, GST-E2F-1 and GST-DP-1 binding to 32P-labeled E2F probe (Homo sapiens, UniProt Q01094+Q14186); assay: Assay of E2F-DNA binding-inhibiting activity by gel shift assay; settings: 30° C. 30 minutes
T1 construct: a part of human E2F-1 (101-st to 227-th amino acid residues from the N terminus) and GST; a part of the human DP-1 (84-th to 241-th amino acid residues from the N terminus) with GST; made in house; host or cells: Escherichia coli XL1-blue
T1 sequence (Q01094 101-227): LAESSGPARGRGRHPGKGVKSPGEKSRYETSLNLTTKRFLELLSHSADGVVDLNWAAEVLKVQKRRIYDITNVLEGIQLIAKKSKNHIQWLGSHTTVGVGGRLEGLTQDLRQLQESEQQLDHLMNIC
T1 sequence (Q14186 84-241): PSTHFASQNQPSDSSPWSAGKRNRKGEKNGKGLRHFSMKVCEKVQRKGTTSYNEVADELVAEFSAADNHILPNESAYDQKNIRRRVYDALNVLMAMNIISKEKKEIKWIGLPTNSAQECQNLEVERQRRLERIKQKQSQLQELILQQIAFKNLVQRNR
Protocol: Assay of E2F-DNA Binding-inhibiting Activity by Gel Shift Assay (1-1) Expression of a Fusion Protein of E2F-1 and DP-1 in Escherichia Coli
So as to assay the activity to inhibit E2F-DNA binding, a fusion protein of glutathione-S-transferase (abbreviated as GST hereinbelow) with the genes of human E2F-1 [Cell, 70, 337 (1992); Cell, 70, 351 (1992)] and human DP-1 [Genes Dev., 7, 1850 (1993)] was prepared.
(1-2) Gel Shift Experiments by Using GST-E2F-1 and GST-DP-1
The following two oligonucleotides including the E2F binding sequence, which are complementary sequences to each other;
were added individually at a concentration of 10 μM into a solution comprising 10 mM MgCl2, 5 mM DTT and 50 mM Tris-HCl(pH 7.5), for treatment at 75° C. for 10 minutes, and the resulting solutions were left to stand at ambient temperature while gradually lowering the temperature for annealing. The resulting double-stranded DNA solution (10 μl) was kept in a reaction solution (30 μL) [50 mM Tris-HCl buffer(pH 7.5) containing 10 mM MgCl2, 5 mM dithiothreitol (DTT) 10 units of T4 polynucleotide kinase (manufactured by TaKaRa), 0.2 mCi [γ-^32P]ATP (7,000 Ci/mmol ATP, manufactured by Amersham Co.)] at 37° C. for 60 minutes, to label the 5′ terminus. By adding 0.5 M EDTA (2 μl) to the reaction solution, the reaction was terminated, and thereafter, unreactive [γ-^32P]ATP was removed by using a NickColumn G-50 (manufactured by Pharmacia Co.), to recover E2F probe. Into 20 mM HEPES buffer(pH 7.4)(20 μl) containing 40 mM KCl, 1 mM MgCl2, 0.1 mM EDTA, 0.1% Nonidet P-40, and 1 mM DTT were added 0.1 pmol of ^32P-labeled E2F probe, 100 ng of GST-E2F-1, 100 ng of GST-DP-1, 2 μg of calf thymus DNA and 0 to a 100 μM test compound, for reaction at 30° C. for 30 minutes. After the reaction, the reaction solution was electrophoresed by using 0.5×TBE [2.5 mM Tris-borate buffer, pH 8.3, 0.1 mM EDTA] as an electrophoresis buffer in 4% polyacrylamide gel. GST-E2F-1 and GST-DP-1 proteins were bound to the labeled E2F probe, so that the mobility thereof was reduced. Accordingly, the proteins were detected as upper bands. After electrophoresis, the gel was dried to assay the radioactivity in bands shifting upward, by using an image analyzer Type BAS2000 (manufactured by Fuji Film Co.). The radioactivity in each lane was assayed, to calculate the inhibition ratio, on the basis of the radioactivity of a sample with no test compound contained in the reaction system, according to the following equation.
A: radioactivity in a band shifted in the absence of any test compound
B: radioactivity in a band shifted in the presence of a test compound.

[2] = tested on: E2F responsive transcription (human cdc2 promoter-luciferase reporter pcdc21uc2); assay: Assay of activity suppressing E2F responsive transcription (1): human cdc2 promoter luciferase reporter in Saos-2; type: cell-based; settings: 100 μM, electroporation, 40 hours, luciferase activity corrected with protein concentration
Protocol: Assay of Activity Suppressing E2F Responsive Transcription (1)
The promoter sequence of human cdc2 gene [EMBO J., 11, 1797 (1992)], which has been reported to have an endogenous E2F responsive sequence and to effect an E2F dependent transcription, was bound to the upstream of the firefly luciferase gene, which was designated as reporter gene.
Two micrograms (2 μg) of the plasmid pcdc21uc2 thus prepared were introduced, together with a test compound (100 μM), into 1×10^6 cells of Saos-2 by electroporation, in the same manner as in the Test Example 2. As in the Test Example 2, the resulting cells were inoculated into a cell culture dish of a 60-mm diameter for culturing in the presence of 5% CO2 at 37° C. for 40 hours, and thereafter, the cells were peeled off and recovered by centrifugation. […] The luciferase activity was assayed as follows; 300 μl of a substrate solution [25 mM glycylglycine buffer(pH 7.8), 15 mM MgSO4, 5 mM ATP, and 0.33 mM luciferin] was automatically injected into a luminometer LB953 (manufactured by Beltold Co.), to assay the luminescence for 10 seconds, which was defined as luciferase activity. […] Based on the luciferase activity (after correction with protein concentration) of a sample with no test compound contained in the reaction system, the inhibition ratio was calculated by the following equation. […]

[3] = tested on: human osteosarcoma-derived cell line Saos-2; assay: Assay of growth inhibiting activity on Saos-2 cell (test compound introduced by electric pulse); type: cell-based; settings: 100 μM, 40 hours culture, viable cell number
Protocol: Assay of Growth Inhibiting Activity on Saos-2 cell
1×10^6 cells of a human osteosarcoma-derived cell line Saos-2 (ATCC HTB85) cultured in an RPMI 1640 culture medium containing 10% fetal calf serum (manufactured by Nissui Co.; referred to as medium A hereinbelow) in the presence of 5% CO2 at 37° C. were suspended in 50 μl of K-PBS buffer [137 mM KCl, 2.7 mM NaCl, 8.1 mM Na2HPO4, 1.5 mM KH2PO4, and 4 mM MgCl2], followed by addition of a test compound appropriately diluted with K-PBS to a final concentration of 100 μM. The suspension was transferred on a 0.2-cm width cuvette (manufactured by BIO-RAD Laboratories) for loading an electric pulse (conditions: an electric voltage=3 kV/cm, a pulse width=100 μ seconds, a pulse interval=one second, a pulse number=two) by using a Shimadzu cell fusion system SSH-1 [manufactured by Shimadzu Corporation]. After leaving the cuvette to stand for 10 minutes, the cells were recovered and suspended in 3 ml of the medium A, for inoculation on a cell culture dish of a 60-mm diameter(manufactured by Iwaki Glass Co.). […] Based on the cell number with no test compound under load of an electric pulse, the inhibition ratio was calculated by the following equation. […]

[4] = tested on: E2F dependent transcription (luciferase reporter cell strain E2F-1/Saos-2-1); assay: Assay of activity suppressing E2F responsive transcription (2): reporter cell strain E2F-1/Saos-2-1, Lipofect AMINE; type: cell-based, human; settings: luciferase activity corrected with protein concentration
Excerpt: Assay of Activity Suppressing E2F Responsive Transcription (2)
Into the XhoI- and HindIII sites of luciferase reporter vector pluc2 with neomycin (G418) resistant gene [Eur. J. Haematol., 52, 73 (1994)] were inserted an SphI-HindIII fragment composed of the 200 base pairs in the core promoter region of the SV40 initial gene 128-0/5243-5171, base number according to “DNA Tumor Viruses, Molecular Biology of Tumor Viruses, 2nd Ed., Part 2 Revised, Edited by J. Tooze, Cold Spring Harbor Laboratory Press, 1982” and a fragment produced by annealing the following two synthetic oligonucleotides;
and then inserting the annealed product into the XhoI and Asp718 sites of the constructed luciferase vector pSE01uc2, reporter plasmid pE2FII-1luc2 was constructed.
By the following method, the plasmid was introduced into a human osteosarcoma-derived cell strain Saos-2 (ATCC HTB85), and the resulting cell was defined as E2F responsive reporter cell. 2×10^6 cells of the Saos-2 cultured in the presence of 5% CO2 in the medium A at 37° C. were suspended in K-PBS buffer (50 μl) [137 mM KCl, 2.7 mM NaCl, 8.1 mM Na2HPO4, 1.5 mM KH2PO4, 4 mM MgCl2], followed by addition of 1 μg/μl plasmid pE2FII-1 luc2 (4 μg) prepared above. […]

Compound	Inhibition ratio (%) ([1]; 1 μM test compound)	Inhibition ratio (%) ([1]; 10 μM test compound)	Inhibition ratio (%) ([1]; 100 μM test compound)	Inhibition ratio (%) [2]	Inhibition ratio (%) [3]	Inhibition ratio (%) ([4]; 1 μM)	Inhibition ratio (%) ([4]; 10 μM)	Inhibition ratio (%) ([1]; 25 μM test compound)
Ac-NESAYDQKNIRRRVYDALNVLMAMNIIS-NH2 [Compound Ib-1]	13.7%	52.9%	87.6%	83%	73%	–	–	–
Ac-Ala-Arg-Gly-Arg-Gly-Arg-His-Pro-Gly-Lys-Gly-Val-Lys-Ser-Pro-Gly-Glu-Arg-Ser-Arg-Tyr-Glu-Thr-Ser-Leu-Asn-Leu-Thr-Thr-Lys-Arg-Phe-Leu-Glu-Leu-NH2 (Ac-ARGRGRHPGKGVKSPGERSRYETSLNLTTKRFLEL-NH2) [Compound Ic-1]	–	–	–	–	–	17%	28%	–
CCCCCCCCCCCC(=O)N[C@@H](CC(N)=O)C(=O)N[C@@H](CCC(=O)O)C(=O)N[C@@H](CO)C(=O)N[C@@H](C)C(=O)N[C@@H](Cc1ccc(O)cc1)C(=O)N[C@@H](CC(=O)O)C(=O)N[C@@H](CCC(N)=O)C(=O)N[C@@H](CCCCN)C(=O)N[C@@H](CC(N)=O)C(=O)N[C@H](C(=O)N[C@@H](CCCNC(=N)N)C(=O)N[C@@H](CCCNC(=N)N)C(=O)N[C@@H](CCCNC(=N)N)C(=O)N[C@H](C(=O)N[C@@H](Cc1ccc(O)cc1)C(=O)N[C@@H](CC(=O)O)C(=O)N[C@@H](C)C(=O)N[C@@H](CC(C)C)C(=O)N[C@@H](CC(N)=O)C(=O)N[C@H](C(=O)N[C@@H](CC(C)C)C(=O)N[C@@H](CCSC)C(=O)N[C@@H](C)C(=O)N[C@@H](CCSC)C(=O)N[C@@H](CC(N)=O)C(=O)N[C@H](C(=O)N[C@H](C(=O)N[C@@H](CO)C(N)=O)[C@@H](C)CC)[C@@H](C)CC)C(C)C)C(C)C)[C@@H](C)CC [Compound Ib-3] (Lauroyl-NESAYDQKNIRRRVYDALNVLMAMNIIS-NH2)	–	–	49.5%	–	–	–	–	17.9%
